The subject of data set [1] is GYKI-20039-induced tremor. In words: GYKI-20039-induced tremor test on mice. The data set is classed as in vivo, mice (male CFLP). The conditions noted are these: for ED50: Mus musculus. As to the method:
After administration of the test substance the mice were suspended on an isometric dynamometer in a light plastic box and the strength of the tremor was measured and quantified by electronic integration. The tremor strength of mice was averaged in the 4th-5th minutes following the treatment with 10 the test substance.
The animals were pretreated with various doses of the muscle relaxants to be tested before administration of the test substance. The time of pretreatment was 0 in intravenous examinations, whereas a pretreatment time of 10 minutes was used in oral investigations.
(§1) For the verification of the oral activity the tremor test was used on mice whereas the flexor reflex was investigated by using intraduodenal (i.d.) administration.

The test system of a further data set is Straub's tail. Nature of the data set: Straub's tail test (morphine hydrochloride) on mice. It is filed as in vivo, mice (male OF-1). The note with it: for ED50: Mus musculus, ip, read-out: Straub's tail ED50 i.p. The method, then:
Method 2: Straub's tail test
The method of Novack [Drug Development Res. 2, 383 (1982)] was used with some modification. Groups consisting of 10 male OF-1 mice each weighing 19 to 21 g were intraperitoneally treated with 60 mg/kg of morphine hydrochloride. The formation (development) of Straub's stail was judged by 15 minutes after the morphine treatment. It was considered to be positive when the animal permanently kept his tail upwards in an angle being steeper than 45°. A pretreatment was carried out with various doses of the compound to be tested by 20 minutes before the time of reading. The ED50 value, i.e. the dose inhibiting the positive response in 50% of the animals, was calculated by using the method of Litchfield and Wilcoxon.
(The above author found a good correlation between the effectivity shown in this test method and the clinical effect of central muscle relaxants.)

The subject of the next data set is flexor reflex. In words: Flexor reflex on anaesthetized cats. It is filed as in vivo. The method, then:
Method 3: Flexor reflex on anaesthetized cats
Chloralose-anaesthetized cats of both sexes weighing 2.2 to 5.4 kg each were used in these experiments. The flexor reflex of the animals was assessed by using the quantitative electromyographic method of Farkas et al. [Pharmacol. Res. Comm. 20, Suppl. 1, 141 (1988)].
[…] For characterization of duration of the effect the time (T75%) is shown, which passed after administration of this dose up to the return to 75% of the control value.
as §1

A short description of data set [2]: Acute toxicity and therapeutic ratio on mice. The data set is classed as in vivo. The conditions noted are these: mouse, in vivo; for selectivity ratio: mice, LD50 to tremor ED50. The method, then: (§2) Method 4: Study on the acute toxicity
(§3) These experiments were carried out on groups consisting of 10 male and 10 female mice each weighing 19 to 21 g. For the determination of the intravenous toxicity the substances to be tested were dissolved in 10 ml/kg of body-weight of physiological saline and injected to the tail vein of CFLP mice during 1 minute. For evaluation of the oral toxicity the substances to be tested were dissolved in 10 ml/kg of body-weight of physiological saline and introduced to the stomach of OF-1 mice by using a rigid gastric tube. The perishing ratio of the animals was evaluated by 48 hours following the administration of the substance to be tested. The LD50 value, i.e. the dose causing the death of 50% of the animals was calculated by using the method of Litchfield and Wilcoxon. The therapeutic (safety) ratio was determined as the ratio of the LD50 value to ED50 value shown in the GYKI-20039-induced tremor test.

For a further data set, the system named is mice. In words: Acute toxicity and therapeutic ratio on mice. The data set is classed as in vivo. The note with it: mice, i.v. and oral. The method, then:
as §2, §3

In data set [3] the test system is GYKI-20039-induced tremor. The note with it: mice; literature (Coward et al.; Andrasi et al.); cited from earlier work.
Setting [4] is: iv, pretreatment time 0, Table 1, read-out: GYKI-20039 (tremor) ED50 i.v.
Setting [5] is: 10 mg/kg i.v., time up to return to 75% of control.
Setting [6] is: iv, Table 3, read-out: Muscle relaxant effect, Tremor ED50 i.v.
Setting [7] is: po, Table 3, read-out: Muscle relaxant effect, Tremor ED50 p.o.
[8] abbreviates: po, pretreatment 10 minutes, Table 2, read-out: Tremor test ED50 p.o.
The mark [9] stands for this setting: iv, CFLP mice, i.v., read-out: Acute toxicity LD50 i.v.
The mark [10] stands for this setting: iv, i.v., read-out: Therapeutic ratio LD50/ED50 i.v.
Where [11] appears, read: po, OF-1 mice, p.o., read-out: Acute toxicity LD50 p.o.
Setting [12] is: po, p.o., read-out: Therapeutic ratio LD50/ED50 p.o.
Setting [13] is: mice, i.p., 60 mg/kg morphine hydrochloride, Table 1.

Where two headings read alike, the source gives them in different places. Where only a bound is given, the exact number is not on record here.

The ED50 is the dose that gives a 50% effect, or the effect in half of the subjects. What is called LD50 is the dose expected to kill half of the subjects tested.

For the molecule `C[Si](C)(Cc1ccc(F)cc1)CN1CCCC1.Cl` [Example 10, N-{[dimethyl-(4-fluorobenzyl)silyl]methyl}-pyrrolidine hydrochloride], the ED50 in data set [1] (setting [4]) was found to be 2.8 mg/kg; in the data set on Straub's tail, 22 mg/kg. Further, the “Flexor reflex, duration of effect T75%” value with flexor reflex (setting [5]) is listed as greater than 180 min.
Consider `C[Si](C)(Cc1ccc(F)cc1)CN1CCCCC1.Cl` [Example 2, N-{[dimethyl-(4-fluorobenzyl)silyl]methyl}piperidine hydrochloride], for which the ED50 came out at 2.8 mg/kg in data set [1] (setting [6]); 2.8 mg/kg in data set [1] (setting [4]); 27.6 mg/kg in data set [1] (setting [7]); 27.6 mg/kg in data set [1] (setting [8]); 21.8 mg/kg in the data set on Straub's tail. The “activity relative to eperisone” value in data set [1] (oral route) is on record as 5 times. For the same molecule, in data set [1] (oral route), the “activity relative to tolperisone” value is recorded as 10 times. The “Flexor reflex, duration of effect T75%” value with flexor reflex (setting [5]) was greater than 180 min. The “Flexor reflex, T75%” value is 230 min with flexor reflex (12.5 mg/kg i.d.) and greater than 300 min in the data set on flexor reflex (25 mg/kg i.d.). In addition, the “Flexor reflex, maximum inhibition” value came out at 44.8% in the data set on flexor reflex (12.5 mg/kg i.d.) and 82.1% with flexor reflex (25 mg/kg i.d.). Also, in the data set on flexor reflex (i.d.), the “duration of effect compared with 4-fold doses of the reference drugs” value is recorded as “exceeded even the duration of effect of 4-fold doses of the reference drugs”. Moreover, the “dose needed to achieve a given effect relative to the dose of the reference drugs” value with flexor reflex (i.d., vs tolperisone and eperisone) is listed as “half of the dose”. In addition, the LD50 at 48 h was 25.5 mg/kg in data set [2] (setting [9]) and 228 mg/kg in data set [2] (setting [11]). Further, the selectivity ratio in data set [2] (setting [10]) came out at 9.1; in data set [2] (setting [12]), 8.3. Also, the “therapeutic ratio in comparison to the reference drugs” value with mice is “significantly more advantageous”.
As for `C[Si](C)(CCCN1CCCC1)Cc1ccc(F)cc1.Cl` [Example 11, N-{[dimethyl-(4-fluorobenzyl)silyl]propyl}pyrrolidine hydrochloride], the ED50 in data set [1] (setting [4]) was 3.8 mg/kg; in the data set with Straub's tail, 27.5 mg/kg. Besides, the “Flexor reflex, duration of effect T75%” value in the data set on flexor reflex (setting [5]) was greater than 180 min.
The matching figures for `C[Si](C)(CCCN1CCCCC1)Cc1ccccc1.Cl` [Example 19, N -[(benzyldimethylsilyl)propyl]piperidine hydrochloride]: 3.6 mg/kg, 22.3 mg/kg and greater than 180 min.
As for `Cl.N=C(Cc1c(Cl)cccc1Cl)NC(N)=O` [LON-954], the induction of tremor result in data set [3] was “induces a tremor on mice”.
Turning to `N=C1SCCN1c1c(Cl)cccc1Cl` [GYKI-20039, reference compound], the induction of tremor result in data set [1] was “induces a tremor on mice”.
With `C[Si](C)(CCCn1ccnc1)Cc1ccc(F)cc1.Cl` [Example 12, N-{[dimethyl-(4-fluorobenzyl)silyl]propyl}imidazole hydrochloride], the median effective dose (ED50) in data set [1] (setting [4]) was found to be 5.4 mg/kg; with Straub's tail it was 26.9 mg/kg. For the same molecule, in the data set on flexor reflex (10 mg/kg i.v.), the “inhibition of flexor reflex” value amounted to 40%. Moreover, the “Flexor reflex, duration of effect T75%” value in the data set with flexor reflex (setting [5]) is listed as greater than 180 min.
Take `Cc1ccc(C[Si](C)(C)N2CCCCC2)c(C)c1.Cl` [Example 34]: the “GYKI-20039 (tremor) ED50 i.v.” value in data set [1] (i.v., pretreatment time 0, Table 1) stood at 8.7 mg/kg. Also, the “Straub's tail ED50 i.p.” value with Straub's tail (setting [13]) is 30.7 mg/kg. Moreover, in the data set on flexor reflex (i.v., 5 mg/kg (footnote *)), the “Flexor reflex, duration of effect T75%” value is reported as 120 min and the “inhibition of flexor reflex” value was 53%.
With `Cc1ccc(C(=O)C(C)CN2CCCCC2)cc1` (centres unmarked) [Tolperisone, tolperisone, reference compound], the ED50 turned out to be 10.1 mg/kg in data set [1] (setting [6]), 338 mg/kg in data set [1] (setting [7]), 338 mg/kg in data set [1] (setting [8]) and 63 mg/kg in the data set with Straub's tail (setting [13]). Besides, the “Flexor reflex, duration of effect T75%” value in the data set on flexor reflex (setting [5]) stood at 50 min. For the same molecule, the “Flexor reflex, T75%” value with flexor reflex (25 mg/kg i.d.) was 60 min; in the data set with flexor reflex (50 mg/kg i.d.), 140 min. Besides, the “Flexor reflex, maximum inhibition” value turned out to be 33.1% in the data set on flexor reflex (25 mg/kg i.d.) and 76.6% with flexor reflex (50 mg/kg i.d.). Moreover, the figures for the LD50 at 48 h in data set [2] (setting [9]) and in data set [2] (setting [11]) were 39.8 mg/kg and 612 mg/kg, respectively. For the same molecule, the selectivity ratio in data set [2] (setting [10]) was determined as 3.9; in data set [2] (setting [12]), 1.8.
Turning to `Cc1ccc(Cl)c(C[Si](C)(C)CN2CCCCC2)c1.Cl` [Example 35, N-{[(2-chloro-5-methylbenzyl)-dimethylsilyl]methyl}piperidine hydrochlorid], the ED50 was 3.7 mg/kg in data set [1] (setting [4]) and 25.9 mg/kg in the data set with Straub's tail. Besides, the “Flexor reflex, duration of effect T75%” value with flexor reflex (setting [5]) is given as greater than 180 min.
In the case of `CCc1ccc(C(=O)C(C)CN2CCCCC2)cc1` (centres unmarked) [Eperisone, eperisone, reference compound], the ED50 in data set [1] (setting [6]) was 7.8 mg/kg; in data set [1] (setting [4]) it was 7.8 mg/kg; in data set [1] (setting [7]), 126 mg/kg; in data set [1] (setting [8]) it was 126 mg/kg; in the data set with Straub's tail (setting [13]), 63.6 mg/kg. Moreover, in the data set with flexor reflex (setting [5]), the “Flexor reflex, duration of effect T75%” value was found to be 90 min. Moreover, the “Flexor reflex, T75%” value amounted to 60 min in the data set on flexor reflex (25 mg/kg i.d.) and 190 min in the data set with flexor reflex (50 mg/kg i.d.). Also, the “Flexor reflex, maximum inhibition” value in the data set on flexor reflex (25 mg/kg i.d.) was found to be 38.5%; in the data set with flexor reflex (50 mg/kg i.d.), 74.8%. The LD50 at 48 h in data set [2] (setting [9]) amounted to 53.4 mg/kg; in data set [2] (setting [11]), 320 mg/kg. Moreover, the figures for the selectivity ratio in data set [2] (setting [10]) and in data set [2] (setting [12]) were 6.8 and 2.5, respectively.

Source of the values: patent US5340823A, “Organosilane derivatives, pharmaceutical compositions containing them and process for preparing same” (Richter Gedeon Vegyeszeti Gyar RT., priority 1990, dated 1994).
